Source: patent US20040156930A1, “Treating mouth ulcers with patches to speed healing and relieve pain” (priority 2002, published 2004)

How the values were obtained:
[1] = system: canker sores (aphthous ulcers); assay: Inventor's trials of oral patches with licorice root extract or amoxicillin on canker sores; format: in vivo, human
Description: For medication to be placed in the patch, any of the above-mentioned antimicrobials, or similar antimicrobials, may be used. […] A preferred quantity of licorice extract in each patch that lasts 1 to 6 hours is 20 to 95 milligrams.
In the testing, conventional amoxicillin powder for preparation of oral suspension was used, which includes sugars and other excipients. The sugars act as a binder to the sponge of the oral patch. The oral suspension is massaged into the patch and dried. Preferably, the amoxicillin powder is mixed into a stronger than normal liquid form before being added to the patch.

[2] = system: canker sores (aphthous ulcers); details: topical application, reported in literature; cited from earlier work

Row | Compound | healing of canker sores [2] | also measured
1 | CC1(C)S[C@@H]2[C@H](NC(=O)[C@H](N)c3ccc(O)cc3)C(=O)N2[C@H]1C(=O)O [amoxicillin] | shown effective | effectiveness on canker sores ([1]; amoxicillin powder for oral suspension on conventional patches): works quite well; typical duration of each canker sore ([1]; in a patch applied for half of the hours, day and night, typically 10-14 days without treatment): ~2 days; results of treatment of canker sores ([1]; patch keeping medication on or near the sore about half of the hours in a day over 2 days): nearly always effective; results of treatment of canker sores ([1]; troche, gel, paste or liquid applied six times per day for 2 days): nearly always ineffective
2 | NC(N)=O.OO [carbamide peroxide] | reported to speed healing of canker sores | –
3 | N=C(NCCCCCCNC(=N)NC(=N)Nc1ccc(Cl)cc1)NC(=N)Nc1ccc(Cl)cc1.O=C(O)[C@H](O)[C@@H](O)[C@H](O)[C@H](O)CO.O=C(O)[C@H](O)[C@@H](O)[C@H](O)[C@H](O)CO [chlorhexidine gluconate] | reported to speed healing of canker sores | –
4 | CN(C)CCOC(c1ccccc1)c1ccccc1 [diphenhydramine] | reported to speed healing of canker sores | –
5 | OO [hydrogen peroxide] | reported to speed healing of canker sores | –
6 | penicillin | shown to speed healing of canker sores | –
